Here are results for three compounds from ChEMBL document CHEMBL1649276, “Phenylbutyrate induces antimicrobial peptide expression” (2009).

Molecules are shown by their SMILES. Active and inactive are the calls of the source. The calls are words filed in the database; no cut-off is given here.

The test system of test [1] is VA10. Briefly: Induction of CAMP mRNA expression in human VA10 cells at 4 mM after 24 hrs by RT-PCR analysis. The format is functional, cell-based.
Test [2] concerns U-937. Briefly: Induction of CAMP mRNA expression in human U937 cells at 4 mM after 8 to 48 hrs by RT-PCR analysis. The format is functional, cell-based.
Test [3] deals with VA10. The experiment in a line: Induction of CAMP mRNA expression in human VA10 cells after 48 hrs by RT-PCR analysis. The class given is functional, cell-based.
In test [4] the test system is VA10. Briefly: Induction of CAMP mRNA expression in human VA10 cells at 4 mM by RT-PCR analysis. The class given is functional, cell-based. The note with it: TDE = time-dependent effect.
Test [5] has as its system HT-29. Briefly: Induction of CAMP mRNA expression in human HT-29 cells at 4 mM after 8 to 48 hrs by RT-PCR analysis. The format is functional, cell-based.
For test [6], the system named is A498. Briefly: Induction of CAMP mRNA expression in human A498 cells at 4 mM after 8 to 48 hrs by RT-PCR analysis. The class given is functional, cell-based.
Test [7] concerns VA10. The experiment in a line: Induction of DEFB1 mRNA expression in human VA10 cells at 4 mM after 24 hrs by RT-PCR analysis. The format is functional, cell-based.
Test [8] concerns VA10. Briefly: Induction of DEFB2 mRNA expression in human VA10 cells at 4 mM after 24 hrs by RT-PCR analysis. The class given is functional, cell-based.
The test system of test [9] is VA10. The experiment in a line: Induction of DEFB3 mRNA expression in human VA10 cells at 4 mM after 24 hrs by RT-PCR analysis. The class given is functional, cell-based.
Test [10] deals with VA10. Briefly: Induction of DEFB4 mRNA expression in human VA10 cells at 4 mM after 24 hrs by RT-PCR analysis. The class given is functional, cell-based.
The subject of test [11] is U-937. The experiment in a line: Induction of DEFB1 mRNA expression in human U937 cells at 4 mM after 24 to 48 hrs by RT-PCR analysis. The format is functional, cell-based.
A short description of test [12]: Induction of CAMP mRNA expression in human VA10 cells at 4 mM after 24 hrs by RT-PCR analysis in presence of 1,25(OH)2D3 relative to control. The class given is functional.
The subject of test [13] is VA10. Briefly: Induction of LL-37 protein expression in human VA10 cells at 4 mM after 24 hrs by Western blotting. The format is functional, cell-based. (A western blot detects proteins with antibodies after separation by electrophoresis.)
The test system of test [14] is VA10. Briefly: Induction of LL-37 protein expression in human VA10 cells at 20 nM after 24 hrs by Western blotting. The class given is functional, cell-based.
Test [15] has as its system VA10. The experiment in a line: Induction of CAMP mRNA expression in human VA10 cells at 4 mM after 24 hrs by RT-PCR analysis in presence of protein synthesis inhibitor CHX treated 1 hr before compound challenge. The format is functional, cell-based.
Test [16] deals with VA10. The experiment in a line: Induction of CAMP mRNA expression in human VA10 cells at 4 mM after 24 hrs by RT-PCR analysis in presence of JNK inhibitor SP600125 treated 1 hr before compound challenge. The format is functional, cell-based.
Test [17] relates to VA10. Briefly: Induction of CAMP mRNA expression in human VA10 cells at 4 mM after 24 hrs by RT-PCR analysis in presence of p38 kinase inhibitor SB203580 treated 1 hr before compound challenge. The class given is functional, cell-based.
The test system of test [18] is VA10. Briefly: Induction of CAMP mRNA expression in human VA10 cells at 4 mM after 24 hrs by RT-PCR analysis in presence of ERK1/2 inhibitor U0126 treated 1 hr before compound challenge. The format is functional, cell-based.

On to `CC(Cc1ccccc1)C(=O)O` (stereo not given), for which the result in test [1] was Active.

Regarding `CCC(C)(C)C(=O)O`, in [1], the outcome was inactive.

For the compound `O=C([O-])CCCc1ccccc1.[Na+]` [SODIUM PHENYLBUTYRATE], the result in test [2], in [1], in test [5], in test [6], in [7] and in test [13] was Active. In addition, the outcome in test [14] was Active. The Activity result in [3] was “Dose-dependent effect”; in [4], “tde”. Also, the result in test [8], in [9], in test [10], in test [11], in [15] and in test [16] was inactive. In addition, the result in test [17] and in [18] was inactive. Besides, in test [12], the “fold change (FC)” value came out at 100.
